Laboratory results reported in patent US4233291A (priority 1977, dated 1980).

Columns and labels:
leukemic cells L 1210 = tested on: leukemic cells L 1210; parameters: species or system mice; details: mouse, in vivo
[1] = tested on: peritoneal macrophages from unstimulated rats (Fisher strain); test: Stimulation of the activities of the macrophages, cultivated with the substance; type: cell-based; details: 16 hours incubation
Method: The peritoneal macrophages from unstimulated rats (Fisher strain) are prelevated through peritoneal washing and isolation on plastic rack. They are cultivated for a night with dosages of the depsipeptide ranging from 1 picogramm to 1 nanogramm/ml.
The content in proteins, in lysosomal β-glucoronidase, and in cytoplasmic leucine-amino peptidase are determined on the cells previously lysed with 0.05% Triton X-100.
In the same manner, incubation has also been performed with a solution of lipopolysaccharide from Escherichia coli and Muramyldipeptide as reference substances.
Amounts of cellular enzymes and proteins in the macrophages after 16 hours incubation.
The content in proteins is expressed in g/10^6 cells and that in β-glucuronidase in mMol of substrate hydrolysed by 10^6 cells per hour.

[2] = tested on: larvae of schistosoma mansoni; test: Release of 51 chromium from larvae of schistosoma mansoni, cytotoxicity in vivo; details: macrophages of the rat stimulated in vivo
From the text: The depsipeptide from Fusarium equiseti has been tested to determine its action in vivo on the cytotoxicity induced in the intraperitoneal macrophages of the rat against the larvae of schistosoma mansoni.
The macrophages are stimulated either in vitro or in vivo and are contacted with a suspension of larvae of schistosoma mansoni previously tagged with 51 chromium.
This measure reflects the significance of cellular lesions on the surface of the schistosomules. The radio activity released in the medium is expressed as a percentage of the total radio-activity present in the schistosomules at the beginning of the experiments.

[3] = 1 ng/ml (row printed after the first 100 ng/ml)
[4] = 10 ng/ml (second row so printed)
[5] = 100 ng/ml (second row so printed, last row)

For `O=P1(N(CCCl)CCCl)NCCCO1` (stereo not drawn) [Cyclophosphamide], the survival time (leukemic cells L 1210) was “extends in a statiscally significative manner”.
For `CC(=O)N[C@@H]1[C@@H](O[C@H](C)C(=O)N[C@@H](C)C(=O)N[C@H](CCC(=O)O)C(N)=O)[C@H](O)[C@@H](CO)O[C@H]1O` [Muramyldipeptide], the Proteins ([1]; 1 pg/ml) was 46,1 ± 2,2 g/10^6 cells, the β-glucuronidase ([1]; 1 pg/ml) was 36,5 ± 0,1 mMol of substrate hydrolysed b and the Proteins ([1]; 10 pg/ml) was 44,8 ± 0,7 g/10^6 cells. The β-glucuronidase ([1]; 10 pg/ml) was 36,3 ± 6,4 mMol of substrate hydrolysed b, the Proteins ([1]; 100 pg/ml) was 44,6 ± 1,9 g/10^6 cells and the β-glucuronidase ([1]; 100 pg/ml) was 41,0 ± 2,9 mMol of substrate hydrolysed b. The Proteins [1, 3] was 45,1 ± 0,9 g/10^6 cells, the β-glucuronidase [1, 3] was 30,6 ± 3,8 mMol of substrate hydrolysed b and the Proteins ([1]; 1 ng) was 44,0 ± 1,8 g/10^6 cells. The β-glucuronidase ([1]; 1 ng) was 34,0 ± 5,3 mMol of substrate hydrolysed b, the Proteins [1, 4] was 48,1 ± 1,8 g/10^6 cells and the β-glucuronidase [1, 4] was 32,2 ± 3,0 mMol of substrate hydrolysed b. The Proteins ([1]; 10 ng/ml) was 43,4 ± 1,8 g/10^6 cells, the β-glucuronidase ([1]; 10 ng/ml) was 39,6 ± 6,1 mMol of substrate hydrolysed b and the Proteins [1, 5] was 55,3 ± 3,1 g/10^6 cells. For the same molecule, the β-glucuronidase [1, 5] was 39,0 ± 1,6 mMol of substrate hydrolysed b, the Proteins ([1]; 100 ng/ml) was 40,5 ± 0,7 g/10^6 cells and the β-glucuronidase ([1]; 100 ng/ml) was 23,9 ± 6,2 mMol of substrate hydrolysed b. For the same molecule, the “release of 51 Cr (change)” value ([2]; 1 g) was “+6%” and the “release of 51 Cr (change)” value ([2]; 100 g) was “+10%”.
